Test results: PMC12554172, “Systematic analysis of the RGS2 degron reveals characteristics of substrate recognition by the F-box protein FBXO44” (The Journal of Biological Chemistry, 2025)
Peptide text beside a SMILES is read from it.

Assays:
FBXO44^FBA [1] = biological target: T1, FBXO44^FBA (Homo sapiens, UniProt Q9H4M3); assay: Dot blot of FLAG-FBXO44^FBA binding to immobilized peptide; details: peptide spotted on PVDF at increasing amounts; 2 μg/ml FLAG-FBXO44^FBA overnight at 4 °C; anti-FLAG
T1 construct: we expressed and purified only this domain for all in vitro studies; 6xHis (N, cleaved yes); MBP (N, cleaved yes); made in house; host or cells: Escherichia coli Rosetta BL21 (λDE3)
T1 sequence (Q9H4M3 71-252 limits assumed): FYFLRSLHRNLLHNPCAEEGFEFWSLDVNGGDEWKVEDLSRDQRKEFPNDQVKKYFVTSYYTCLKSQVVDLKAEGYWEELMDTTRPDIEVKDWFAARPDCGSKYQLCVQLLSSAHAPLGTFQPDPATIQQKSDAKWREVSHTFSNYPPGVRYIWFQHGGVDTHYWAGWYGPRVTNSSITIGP
Source text: (§1) However, evidence of a direct interaction between RGS2 and FBXO44 has, until now, not yet been established. Thus, we first aimed to verify that purified FBXO44 would bind the degron sequence in vitro. […] This also circumvented the issue that full-length FBXO44 (as well as all other F-box proteins) is very difficult to express in the absence of an adaptor protein, such as Skp1 ([30]). To test the ability of the FBA domain to bind the RGS2 degron specifically, a peptide corresponding to residues Met^5–Met^16 (MFLAVQHDRCPM; herein referred to as RGS2^5–16; Fig. 1A) was dotted onto a polyvinylidene difluoride (PVDF) membrane at increasing amounts (Fig. 1B). […] The membrane was then incubated with FLAG-tagged FBXO44 FBA domain (FBXO44^FBA) and subjected to immunoblotting using a FLAG antibody. […] To get an estimate of the binding affinity between FBXO44^FBA, we next performed surface plasmon resonance (SPR) with the RGS2^5–16 peptide anchored on the chip and FBXO44^FBA as the analyte.
Figure 1 A peptide representing the degron in RGS2 binds FBXO44^FBAin vitro.A, sequence and schematic of the RGS2^5–16 peptide. B, a representative dot blot showing binding of FBXO44^FBA to immobilized RGS2^5–16 peptide. […] The RU at equilibrium was subtracted from the nonspecific binding detected in Fc1 and measured for each concentration. […]

FBXO44^FBA [2] = biological target: T1, FBXO44^FBA; assay: Surface plasmon resonance, immobilized RGS2^5–16 peptide; details: Biacore X100; peptide immobilized on CM5 chip by amine coupling; FBXO44^FBA analyte 0.29–75 μM, contact time 60 s; nonlinear fit of saturation binding; preliminary
Source text: as §1
RGS2^5–16 peptide was immobilized onto a CM5 chip (Cytiva; BR100012) using amine coupling (Cytiva; BR100557) following the manufacturer's protocol. RGS2^5–16 peptide (150 μg/ml) in 10 mM NaOAc, pH 4.0, was loaded into the Biacore X100 sample rack. […] The RU at equilibrium was subtracted from the nonspecific binding detected in Fc1 and measured for each concentration. […]

FLAG immunoreactivity (FBXO44^FBA binding) (FBXO44^FBA [1])	Kd (FBXO44^FBA [2])	Molecule
no signal detected		MCKGLAALPAT [RGS4^1–11, peptide corresponding to the first 11 residues in RGS4, negative control]
	2090 nM	CSCC[C@H](NC(=O)[C@@H]1CCCN1C(=O)[C@H](CCCNC(=N)N)NC(=O)[C@H](CS)NC(=O)[C@H](CC(=O)O)NC(=O)[C@H](Cc1c[nH]cn1)NC(=O)[C@H](CCC(N)=O)NC(=O)[C@@H](NC(=O)[C@H](C)NC(=O)[C@H](CC(C)C)NC(=O)[C@H](Cc1ccccc1)NC(=O)[C@@H](N)CCSC)C(C)C)C(=O)O [RGS2^5–16] (H-MFLAVQHDCRPM-OH)
